In patent publication US12655092B2, “Precursor compounds of ester compounds” (University of Guelph, priority 2019, dated 2026):
Values joined by “and” are separate entries in the source; they are usually repeats but may differ in a detail not shown here. Equal values may be shown once. Marks after values point to notes of the source that are not given here.

How the values were obtained:
[1] = Storage stability of the precursor at 25° C. under 0, 60 and 100% RH (EF release after storage); assay type: physicochemical
Protocol: The stability of the precursor was studied over a period of 30 days. The precursor was stored at 25° C. under 0, 60, and 100% RH. An environmental chamber (MLR-350H, Sanyo Electric Co., Ltd. Japan) was used to control the humidity levels and temperature. Samples from each condition were tested for EF release at 1, 15, and 30th day at 25° C. using 0.1 N citric acid solution as described above.

[2] = tested on: spotted-wing Drosophila (SWD) adults; assay: Mortality of adult SWD on blueberries exposed to EF vapor released from the precursor; assay type: in vivo
Protocol: The EF precursor from Example 1 was activated using an acid-dispersed substrate (acidified substrate prepared in Example 1) and the moisture generated from fruit respiration to release EF vapor. In a model system utilized spotted-wing Drosophila (SWD), an invasive insect pest of many fruit crops, as the surrogate test organism. The mortality of adult SWD on blueberries was evaluated when they were exposed to the EF vapor released from the precursor. Different amounts of the EF precursor (2.5, 5.0, and 7.5 mg) were activated using the citric acid-dispersed substrate to release 1, 2, and 3 mg of EF, respectively, in a sealed 1 L glass jar containing 0, 20 or 40 g of blueberries and 10 adult SWD.

[3] = EF release from the precursor activated with 0.1 N citric acid solution, headspace GC analysis; assay type: physicochemical; settings: for EF released: after 120 min
Protocol: (§1) The cumulative release of EF from the precursor was determined using an automatic headspace analysis system (FIG. 1). The system comprising of an environmental chamber (MLR-350H, Sanyo Electric Co., Ltd. Japan), a gas chromatograph (GC 6890, Agilent Technologies Inc., Santa Clara, CA, USA) equipped with a flame ionization detector (FID), stream selection valves (EMTCA-CE, VICI Valco Inst., Houston, TX, USA), 1/16 stainless steel tubing, and a control board (SRI Instruments Inc., Las Vegas, Nev., USA). The capillary column used with the GC was Agilent J&W DB-624 (Agilent Technologies Inc., Santa Clara, CA, USA) with 30 m length, 0.53 mm I.D, and 3 μm film thickness. The temperature of the detector and the oven were 200° C. and 40° C., respectively. The flow rates of N2, H2, and O2 were 30, 50, and 200 mL/min, respectively. The calibration curve was prepared by measuring standard headspace concentration of a known amount of EF. Chromatograms were analyzed using the Peak Simple software (393-32 bit, SRI Instruments, CA, USA). At any given sampling point, the total amount of EF released into the headspace (Mt, μL) was determined according to Eqs. 5 to 7 by the addition of the recorded amount (Mr, μL) and the accumulated loss (Ml, μL) of all the previous sampling points up to that point.
To activate the release of EF, two approaches were evaluated. In the first approach, 1-2 mg of the precursor was placed in a 10 mL, glass beaker inside a hermetically sealed 1 L, glass jar as shown in FIG. 1. The headspace gas was extracted through a septum attached to the jar lid at predetermined time intervals. EF release was triggered by distributing 1 mL of 0.1 N citric acid on the precursor particles using a pipette (Fisher Scientific, Ottawa, ON, Canada) just before closing the jar and attaching it to the sampling needle. The release of EF from the precursor was studied at 5, 15, and 25° C.
(§2) The release kinetics of EF from its precursor were modeled using an empirical pseudo-first order reaction kinetic model:
(§3) [formula] where Ce is the concentration of EF in the headspace of the 1 L test jar at an infinite time; C is the EF released at time, t; C0 is the EF initial concentration (which was equal to zero in our case); and k is the release rate constants. Non-linear regression analyses were conducted to fit the release data and determine the model parameters. Results and Discussion Ethyl Formate Precursor Formation

[4] = Dispersion of precursor particulates in water; assay type: physicochemical; settings: 5 h of stirring
[5] = EF release from the precursor on citric acid-acidified nonwoven substrate at different RH, headspace GC analysis; assay type: physicochemical; settings: 25° C.; for Ce / k: fitted model
Protocol: as §1
In the second study, the release of EF was evaluated using an acidified substrate which was prepared by impregnating 0.3 mL of 5% (w/v) citric acid/anhydrous ethanol solution into a 3×3 cm spun-bound polypropylene nonwoven, followed by drying it overnight at 40° C. The precursor (1-2 mg) was then spreaded on the top of the acidified nonwoven layer and exposed to the test relative humidity maintained in a hermetically 1 L glass jar using silica gel (0% RH) or saturated salt solutions (magnesium nitrate, 53% RH; sodium chloride, 75% RH; potassium nitrate, 94% RH) (FIG. 1) (ASTM Standard E104-02 2012; Greenspan, 1977). EF release, expressed in milligram of EF per milligram of precursor per litre of headspace air, was determined using the headspace analysis system described above.
as §2, §3

[6] = tested on: Rhizopus stolonifer, Colletotrichum musae, Erwinia carotovora, and Pseudomonas aeruginosa; settings: EF vapor, agar medium; cited from earlier work
adult weevils = settings: 50-55 g/m^3 headspace concentration at 4-8° C. for 24 h, apple; cited from earlier work
Penicillium digitatum = settings: EF vapor 6.5-11.5 mmol/dish, agar medium; cited from earlier work
[7] = tested on: test insects in the wheat, split faba beans and sorghum bins; settings: 85 g/t for 4 h followed by second 85 g/t treatment, unsealed metal bins; cited from earlier work
[8] = tested on: Saccharomyces rouxii and Saccharomyces mellis; settings: EF at 3 mL/lb on Deglet Noor dates; cited from earlier work
[9] = 25 °C, fitted pseudo-first order model, listed as A
[10] = 25 °C, fitted pseudo-first order model, listed as B

## CCOC=NNC(=O)CCCCC(=O)NN=COCC [EF precursor, diethyl N,N′-adipoyldiformohydrazonate]
[1]; stored at 0% RH, days 1, 15 and 30
  changes in the amount of EF released after storage: no significant (p>0.05) changes
[1]; stored at 60% RH, after 15 days
  reduction in EF release: 18%
[1]; stored at 60% RH, after 30 days
  reduction in EF release: 45%
[1]; stored at 100% RH, 15 days
  reduction in EF release: 62%
[1]; stored at 100% RH, 30 days
  reduction in EF release: 81%
[2]; after 2 h, 1 mg EF (2.5 mg precursor), 1 L jar with 40 g of blueberries
  mortality: 63%
[2]; after 2 h, 1 mg EF, jars without blueberries
  mortality: 16%
[2]; after 2 h, 3 mg EF (7.5 mg precursor), 1 L jar with 40 g of blueberries
  mortality: 96%
[2]; after 2 h, 3 mg EF, jars without blueberries
  mortality: 60%
[2]; at 4 h, all the concentrations
  mortality: 100%

## CCOC=NNC(=O)CCCCC(=O)NN=COCC [Precursor A, diethyl N,N′-adipoyldiformohydrazonate]
[3]; 25 °C, listed as A
  EF released: 89.0 ± 1.5%
[3]; [9]
  Ce: 0.350 ± 0.005^a mg/mg · L
  k: 0.037 ± 0.000^a min^−1

## CCOC=NNC(=O)CCCCC(=O)NN=COCC [Precursor B, diethyl N,N′-adipoyldiformohydrazonate]
[4]
  dispersibility of precursor particulates in water: agglomerates presisted even after 5 h of stirring
[3]; 5 °C, fitted model
  Ce: 0.792 ± 0.004^c mg/mg · L
  k: 0.004 ± 0.001^d min^−1
[3]; 15 °C, fitted model
  Ce: 0.456 ± 0.014^a, b mg/mg · L
  k: 0.010 ± 0.000^c min^−1
[3]; 25 °C, listed as B
  EF released: 97.9 ± 2.0%
[3]; 25 °C, mg EF per mg precursor per L headspace
  EF released: 0.38±0.002 mg/mg · L and 0.382 ± 0.008^a mg/mg · L
[3]; [10]
  Ce: 0.389 ± 0.007^a, b mg/mg · L
  k: 0.030 ± 0.001^b min^−1
[5]; 0% RH, acid-dispersed substrate
  EF release: no release was observed
[5]; 53% RH
  Ce: 0.072 ± 0.013^c mg/mg · L
  k: 0.006 ± 0.001^b min^−1
[5]; 75% RH
  Ce: 0.200 ± 0.037^b mg/mg · L
  k: 0.024 ± 0.004^a min^−1
[5]; 94% RH
  Ce: 0.333 ± 0.019^a mg/mg · L
  k: 0.026 ± 0.002^a min^−1

## ethyl formate [EF]
[6]
  germicidal concentration: 6.5-11.5 mmol/dish
Adult weevils
  mortality: 100%
Penicillium digitatum
  growth inhibition: did not show complete inhibit
[7]
  insect control: high level of control
[8]
  microbial growth inhibition: able to inhibit the microbial growth
